Where two headings read alike, the source gives them in different places.
Tests used:
cyclooxygenase = assay: inhibition of eicosanoid synthesis by guinea pig peritoneal neutrophils: cyclooxygenase product (TX B2 and 5-HHT) synthesis; assay type: cell-based; conditions: [^14 C]-arachidonic acid and calcium ionophore
Experimental: (§1) The compounds were tested for their activity as inhibitors of the synthesis of eicosanoids by guinea pig peritoneal neutrophils following the addition of [^14 C]-arachidonic acid and calcium ionophore, using a modification of the method published by Harvey et al [J. Pharmacol. Methods, Vol. 9(2), p 147-155 (1983)].

5-lipoxygenase = target: T1, 5-lipoxygenase (Cavia porcellus, UniProt A0A286X958); assay: inhibition of eicosanoid synthesis by guinea pig peritoneal neutrophils: 5-lipoxygenase product (5-HETE) synthesis; assay type: cell-based; conditions: [^14 C]-arachidonic acid and calcium ionophore
T1 construct: synthesis of eicosanoids by guinea pig peritoneal neutrophils; endogenous in cells; host or cells: guinea pig peritoneal neutrophils
T1 sequence (A0A286X958 1-674): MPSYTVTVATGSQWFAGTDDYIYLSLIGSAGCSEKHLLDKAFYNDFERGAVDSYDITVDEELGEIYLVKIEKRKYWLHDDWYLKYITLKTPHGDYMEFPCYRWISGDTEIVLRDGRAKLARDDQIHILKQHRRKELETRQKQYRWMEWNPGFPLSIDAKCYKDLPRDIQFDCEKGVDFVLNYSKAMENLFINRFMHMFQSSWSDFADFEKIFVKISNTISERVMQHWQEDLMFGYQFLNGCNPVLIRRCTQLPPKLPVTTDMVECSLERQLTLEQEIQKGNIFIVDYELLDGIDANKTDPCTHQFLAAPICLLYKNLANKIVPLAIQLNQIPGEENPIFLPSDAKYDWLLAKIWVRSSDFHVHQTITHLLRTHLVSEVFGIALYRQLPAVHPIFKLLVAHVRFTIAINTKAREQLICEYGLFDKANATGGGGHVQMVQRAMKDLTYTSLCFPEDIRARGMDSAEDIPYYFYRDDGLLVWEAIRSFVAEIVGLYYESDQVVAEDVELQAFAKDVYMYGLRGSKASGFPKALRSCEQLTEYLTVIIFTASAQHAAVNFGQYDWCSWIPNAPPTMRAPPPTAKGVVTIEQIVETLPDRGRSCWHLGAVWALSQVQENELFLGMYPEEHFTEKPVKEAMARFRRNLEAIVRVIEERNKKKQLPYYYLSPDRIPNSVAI
Experimental: as §1

IC50 (cyclooxygenase; 5-HHT synthesis, read-out: IC50 (5-HHT)): 6.3 µM
IC50 (cyclooxygenase; TXB2 synthesis, read-out: IC50 (TXB2)): 5 µM
IC50 (5-lipoxygenase): > 100 µM
SMILES: CCSC12ON=C(c3ccc(OC)cc3)N1C(C)(C)C2(C)C (stereo not drawn) [compound 4, 3-(p-methoxyphenyl)-5,5,6,6-tetramethyl-7-ethylthio-1-oxa-2,4-diazabicyclo[3.2.0]hept-2-ene]

Source: patent publication US5059596A, “Azabicyclo compounds” (Roussel Uclaf, priority 1989, dated 1991)
